Measurements reported in patent publication US20240182521A1, “CELL-PENETRATING PEPTIDE VARIANT AND USE THEREOF” (REGEN INNOPHARM INC., priority 2021, published 2024).

Tests used:
NIH3T3 cells [1] = experiment: Cell migration effects, Table 1; format: cell-based, mouse; conditions: vehicle = 1
Description: Various variants of the LPX peptides were prepared as illustrated in FIG. 18. Specifically, various constructs (26 constructs including 101) were prepared by adding various mutations (substitution of a CPP region, amino acid mutation of an RNA binding portion and a zinc finger structure, and addition of his-tag) to the structure of LPX101 in FIG. 19 (FIG. 20).

[2] = tested on: diabetes model mice (db/db); experiment: Diabetic wound healing in diabetes model mice (db/db); format: in vivo, mouse
Description: (§1) The skins of wild type (WT) mice and diabetes model mice (db/db) (n=14 each) were punched with an 8 mm diameter puncher and treated with LPX101 (2 mg/ml, 20 μl) or PBS daily for 14 days and subjected to wound dressing. The wound healing effect was confirmed by analyzing an initial wound area and a re-epithelialization area using ImageJ (mean SEM n=3, *; p<0.05). In addition, the wound healing effect in wounds treated with LPX101 was histologically evaluated. Specifically, diabetic mice (db/db) were stained with H/E or trichrome at 7 and 14 days after wound induction and then confirmed under a microscope, and re-epithelialization and granulation tissue were quantified using ImageJ (n=3, ***; p<0.001). In addition, the wounds of db/db mice were treated with LPX101, and the tissue epidermis after 14 days was histologically analyzed.
(§2) The wound healing effects of LPX101, LPX102, and LPX103 were confirmed in an STZ-induced diabetic mouse model. […] Thereafter, according to a schedule shown in FIG. 12A, PBS (negative control), EGF (positive control) 50 μg/ml, LPX101 2 mg/ml (20 μl), LPX102 and LPX103 (2 mg/ml (20 μl)) were treated, respectively, and then the effect of wound healing in a diabetes-induced mouse model was confirmed through imaging, re-epithelialization, and diabetes phenotypes (hyperglycemia and impaired glucose tolerance test (IPGTT)) (n=10 for each group, *; p<0.05). Additionally, to compare the regenerative activity of LPX peptides in a diabetic mouse model, wound healing kinetics measured by a % non-epithelialized area to an initial wound area (n=8 for each group), and quantification of re-epithelialization analyzed as % of a re-epithelialized area to the initial wound area were confirmed.

diabetic mice (db/db) = experiment: Histological evaluation of wound re-epithelialization (H/E, day 10); format: in vivo, mouse; conditions: day 10 after initial injury
Source text: In order to histologically evaluate wound re-epithelialization in diabetic mice by LPX peptides 101, 102 and 103, wound tissues from diabetic mice (db/db) treated by each LPX were H/E stained on day 10 after initial injury and confirmed under a microscope (50X and 100x).

[3] = tested on: diabetic human epidermal keratinocyte (DHEK); experiment: Cell migration across a scratched boundary; format: cell-based
Description: (§3) An effect of LPX101 peptide on cell growth was confirmed in a NIH3T3 cell line, and the effects of LPX101, LPX102, and LPX103 peptides on cell migration were confirmed in diabetic human epidermal keratinocyte (DHEK) as a diabetic cell line. Specifically, mMSC or NIH3T3 cells were treated with the LPX101 peptide, incubated for 1 hour, and then washed. A % increase in cell growth by LPX treatment was confirmed by measuring the number of cells after 3 days of treatment and calculating a relative proliferation rate as % compared to a control group (n=3). Additionally, in order to confirm the cell migration effect, DHEK cells were treated with LPX101, LPX102, and LPX103 peptides, incubated for 1 hour, and then washed. Thereafter, the migration of cells across a scratched boundary was measured 72 hours after treatment. The number of cells that migrated across a scratch line was measured by image analysis using ImageJ.

NIH3T3 cells [4] = experiment: Glycolysis, extracellular acidification rate (ECAR), Seahorse XF analyzer; format: cell-based, mouse
Description: NIH3T3 cells were incubated in a glucose-free medium for 1 day and then sequentially treated with glucose, oligomycin, and 2-DG, and an extracellular acidification rate (ECAR) was measured as a measure of lactate production using a Seahorse extracellular flux (XF) analyzer and quantification and profile of ECAR were confirmed in cells treated with LPX peptide (Mean SEM n=3, *; p<0.05).

[5] = tested on: NIH3T3 cell line and mouse mesenchymal stem cells (mMSCs); experiment: Cell penetrating effect (FACS, confocal microscopy) of FITC-attached peptides; format: cell-based
Source text: A cell penetrating effect was confirmed in penetrating peptides LPX101 (SEQ ID NO: 11), LPX102 (SEQ ID NO: 12), and LPX103 (SEQ ID NO: 13) having three structures including a signal peptide, an RNA binding affinity residue, and an RNA binding residue (FIG. 1), and two zinc finger motifs. Specifically, in order to measure cell penetrating efficiency, respective peptides that may have been attached to the cell membrane surface were removed by applying a Heparin & Trypsin washing method used in a Keplan group [Kaplan I M, Wadia J S, Dowdy S F (2005) Cationic TAT peptide transduction domain enters cells by macropinocytosis. J Controlled release 102: 247-253] to a NIH3T3 cell line and mouse mesenchymal stem cells (mMSCs). […] Then, the cells were washed three times with PBS and detached with trypsin, and then FACS analysis was performed. In addition, whether each peptide actually existed in the nucleus or cytoplasm of the cell was confirmed by confocal microscopy after 18 hours of peptide treatment, and membrane binding was labeled with PKH.

[6] = tested on: diabetic mouse model (db/db); experiment: Diabetic wound healing by combined treatment with EGF; format: in vivo; conditions: db/db mice, 8 mm punch wound
Source text: The diabetic wound healing effect by combined treatment with LPX peptide and EGF was confirmed.

[7] = tested on: STZ-induced diabetic mouse model; experiment: Wound healing in STZ-induced diabetic mouse model; format: in vivo; conditions: 2 mg/ml (20 μl)
Description: as §2

fibroblast 3T3 cells = experiment: Cell migration across a scratched boundary, LPX105 variants; format: cell-based; conditions: 72 hours after treatment, control group PBS
Description: Using the method described in Example 1-2 above, the cell migration promotion of LPX105, LPH105, and LPHS105 was confirmed. Specifically, in order to confirm the cell migration effect, fibroblast 3T3 cells were treated with LPX105, LPH105, and LPHS105 peptides, incubated for 1 hour, and then washed. Thereafter, the migration of cells across a scratched boundary was measured 72 hours after treatment. The number of cells that migrated across a scratch line was measured by image analysis using ImageJ.

[8] = tested on: diabetes model mice (db/db); experiment: Diabetic wound healing of LPX105 variants in db/db mice; format: in vivo, mouse; conditions: 3 μg daily for 10 days, control group PBS
Description: By using the method described in Example 2-4 above, the diabetic wound healing effect of LPX105, LPH105, and LPHS105 was evaluated. Specifically, the skins of diabetes model mice (db/db) (n=14 each) were punched with an 8 mm diameter puncher and treated with LPX105, LPH105 and LPHS105 (3 μg) or PBS daily for 10 days and subjected to wound dressing. The wound healing effect was confirmed by analyzing an initial wound area and a re-epithelialization area using ImageJ (mean SEM n=3, *; p<0.05).

wild type (WT) mice = experiment: Skin punch wound healing in wild type mice; format: in vivo, mouse; conditions: 2 mg/ml, 20 μl daily for 14 days
Description: as §1

NIH3T3 cell line = experiment: Cell growth (relative proliferation rate vs control, 3 days); format: cell-based, mouse; conditions: concentrations of 2 μM and 5 μM; 3 days after treatment
Description: as §3

[9] = tested on: Human umbilical vein endothelial cells (Huvec); experiment: Blood vessel formation on cytokine-free Matrigel; format: cell-based; conditions: Huvec treated for one day
Source text: Human umbilical vein endothelial cells (Huvec) were dispensed on a cytokine-free Matrigel and treated with LPX101 for one day (n=3, 1 expt). […], the blood vessel formation was confirmed under a microscope, and blood vessel formation parameters including the number of nodules, the number of intravascular junctions, and the number of master segments were quantified.

Row | Substance | Effects on cell migration (3 expts) (NIH3T3 cells [1]; 1 uM) | Effects on cell migration (3 expts) (NIH3T3 cells [1]; 5 uM) | re-epithelialization of diabetic wounds (histology) (diabetic mice (db/db)) | glucose metabolism (glycolysis), ECAR (NIH3T3 cells [4]) | diabetic wound healing effect in combination with EGF [6] | cell migration (fibroblast 3T3 cells) | diabetic wound healing [8] | also measured
1 | LPX104: cell-penetrating peptide of SEQ ID NO: 14, containing SEQ ID NO: 7 with an RNA binding site in zinc finger 2 region (ERRPKGKSMQKRRSKGDRCYNCGGLDHHAKECKLPPQPKKCH; LPX104) | 1.3 | 1.3 | – | – | – | – | – | –
2 | LPX102: cell-penetrating peptide consisting of amino acid sequence SEQ ID NO: 12 (GSERRPKGKSMQKRRSKGDRCYNCGGLDHHAKECKLPPQPKKCHFCQSISHMVASCPL; LPX102) | 1.2 | 1.2 | significantly improved re-epithelialization | promoted glucose metabolism (glycolysis) | improved when treated in combination with EGF | – | – | diabetic wound healing effect (wound healing kinetics and re-epithelialization) compared to LPX101 ([2]; db/db mouse model): better diabetic wound healing effect than LPX101; cell migration compared to LPX101 ([3]; DHEK cells, at lower concentrations than LPX101): promoted cell migration to a similar extent to LPX101; cell permeability compared to LPX101 ([5]; compared to LPX101 (2 μM)): high cell permeability similar to LPX101; wound healing effect compared to LPX101 [7]: better effects than LPX101
3 | LPHS105: LPX105 variant of SEQ ID NO: 40, zinc finger region mutations and Histidine tag insertion (HHHHHHRRPKGKSMQKRRSKGDRCYNCGELDHHAKECKL; LPHS105) | – | – | – | – | – | increased cell migration more than LPX105 | accelerated the diabetic wound healing more significantly than LPX105 | –
4 | LPX105: cell-penetrating peptide of SEQ ID NO: 37 (RRPKGKSMQKRRSKGDRCYNCGGLDHHAKECKL; LPX105) | – | – | – | – | – | significantly promoted cell migration | accelerated the diabetic wound healing | –
5 | LPH105: LPX105 variant of SEQ ID NO: 39, Histidine tag insertion (HHHHHHRRPKGKSMQKRRSKGDRCYNCGGLDHHAKECKL; LPH105) | – | – | – | – | – | increased cell migration more than LPX105 | accelerated the diabetic wound healing more significantly than LPX105 | –
6 | LPX101: cell-penetrating peptide consisting of amino acid sequence SEQ ID NO: 11 (RRPKGKSMQKRRSKGDRCYNCGGLDHHAKECKLPPQPKKCHFCQSISHMVASCPLKAQQK; LPX101) | 1.4 | 1.3 | significantly improved re-epithelialization | promoted glucose metabolism (glycolysis) | improved when treated in combination with EGF | – | – | wound healing (wild type (WT) mice): accelerated wound healing; healing of diabetic wounds ([2]; db/db mice, 2 mg/ml, 20 μl daily for 14 days): significantly accelerated the healing of diabetic wounds; granulation tissue, day 7 ([2]; db/db mice, day 7 (middle of the healing process)): early formation of granulation tissue; remodeling of the regenerated wound epithelium ([2]; db/db mice, day 14): accelerated; granulation tissue, day 14 ([2]; db/db mice, day 14 (end of the healing process)): early shrinkage (remodeling) of granulation tissue; hyperkeratosis, parakeratosis and acanthosis of the epidermis ([2]; db/db mice, histological analysis on day 14): reduced early; migration of DHEK cells ([3]; 72 hours after treatment): promoted the migration of DHEK cells; cell permeability ([5]; concentrations of 2 μM and 5 μM): high cell permeability; intracellular localization ([5]; confocal microscopy after 18 hours of peptide treatment): most of LPX101 was present in the cytoplasm; cell growth (NIH3T3 cell line): promoted cell growth; blood vessel formation (capillary vascular rings) [9]: form more mature capillary vascular rings
